Experimental data published in patent US20250290117A1, “MOLECULAR PHENOTYPIC ANTIMICROBIAL SUSCEPTIBILITY TESTING” (priority 2024, published 2025).

How the values were obtained:
[1] = system: Escherichia coli; test: Molecular phenotypic antimicrobial susceptibility test (extraction or DNA purification prior to PCR); type: cell-based
Outline: (§1)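 Semi-quantitative PCR read-out: growth was taken as resistance and its absence as sensitivity, with DNA either purified (e.g. bead-based) or amplified directly from lysed sample without extraction. Before PCR, 0.5 McFarland dilutions of incubated clinical specimens were held 12-16 hours with breakpoint-level antimicrobials in culture media, beside a drug-free control.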

[2] = system: pathogens of clinical samples; test: Molecular phenotypic antimicrobial susceptibility test of clinical samples, direct PCR without a separate DNA purification step (Table 6); type: cell-based
Outline: as §1

[3] = system: E. coli; test: Molecular phenotypic antimicrobial susceptibility test with direct PCR (no extraction DNA purification step); type: cell-based, Escherichia coli
[4] = system: E. coli; test: Molecular phenotypic antimicrobial susceptibility test, specimen with two detected pathogens incubated together without isolation; type: cell-based, Escherichia coli; conditions: E. coli in specimen with two detected pathogens (E. coli and M. morganii) incubated together; for Ct of Sensitive Breakpoint: Ct of controls (average) 15.93; for Molecular Antimicrobial Susceptibility Result: at sensitive breakpoint
Outline: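 Susceptibility read molecularly: growth means resistance, prevented growth sensitivity, versus antibiotic-free control wells. Co-detected pathogens stay together without isolation; after 4-6 h preincubation and PCR identification (threshold >10,000 cells/mL), inoculum adjusted to 0.5 McFarland and placed on thawed plates with each drug at its breakpoint concentration(s).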

[5] = E. coli isolate 1, Ct at control (average) 21.238
[6] = E. coli isolate 1, at sensitive breakpoint
[7] = E. coli isolate 2, Ct at control (average) 21.270
[8] = E. coli isolate 2, at sensitive breakpoint
[9] = E. coli isolate 3, Ct at control (average) 22.0995
[10] = E. coli isolate 3, at sensitive breakpoint
[11] = E. coli isolate 4, Ct at control (average) 17.5733
[12] = E. coli isolate 4, at sensitive breakpoint
[13] = E. coli isolate 5, Ct at control (average) 21.0933
[14] = E. coli isolate 5, at sensitive breakpoint
[15] = E. coli, clinical sample of r10-r24
[16] = E. coli, clinical sample of r10-r24, Ct control avg 12.97
[17] = E. coli, clinical sample of r158-r172
[18] = E. coli, clinical sample of r158-r172, Ct control avg 12.894
[19] = K. aerogenes, clinical sample of r136-r150
[20] = K. aerogenes, clinical sample of r136-r150, Ct control avg 13.854
[21] = K. pneumoniae, clinical sample of r121-r135
[22] = K. pneumoniae, clinical sample of r121-r135, Ct control avg […]
[23] = M. morganii, clinical sample of r55-r69
[24] = M. morganii, clinical sample of r70-r84
[25] = M. morganii, clinical sample of r70-r84, Ct control avg 11.677
[26] = P. mirabilis, clinical sample of r25-r39
[27] = P. mirabilis, clinical sample of r25-r39, Ct control avg 11.801
[28] = P. mirabilis, clinical sample of r40-r54
[29] = P. mirabilis, clinical sample of r40-r54, Ct control avg 10.06
[30] = E. coli isolate JJ1887, direct PCR, Ct at control (average) 12.832
[31] = E. coli isolate JJ1887, direct PCR, at sensitive breakpoint

Row | Compound | Ct at Sensitive Breakpoint [1, 5] | Molecular Antimicrobial Susceptibility Result [1, 6] | Ct at Sensitive Breakpoint [1, 7] | Molecular Antimicrobial Susceptibility Result [1, 8] | Ct at Sensitive Breakpoint [1, 9] | Molecular Antimicrobial Susceptibility Result [1, 10] | Ct at Sensitive Breakpoint [1, 11] | Molecular Antimicrobial Susceptibility Result [1, 12] | Ct at Sensitive Breakpoint [1, 13] | Molecular Antimicrobial Susceptibility Result [1, 14] | Molecular Antibiotic Susceptibility Result [2, 15] | Ct [2, 16] | Molecular Antibiotic Susceptibility Result [2, 17] | Ct [2, 18] | Molecular Antibiotic Susceptibility Result [2, 19] | Ct [2, 20] | Molecular Antibiotic Susceptibility Result [2, 21] | Ct [2, 22] | Molecular Antibiotic Susceptibility Result [2, 23] | Molecular Antibiotic Susceptibility Result [2, 24] | also measured
1 | Piperacillin/Tazobactam | 25.572 | Sensitive (Antimicrobial wells with pathogen load detected below the control wells (typically >2 cycle thresholds later) may be reported as Sensitive) | 22.685 | Sensitive (Antimicrobial wells with pathogen load detected below the control wells (typically >2 cycle thresholds later) may be reported as Sensitive) | 20.541 | Sensitive (Antimicrobial wells with pathogen load detected below the control wells (typically >2 cycle thresholds later) may be reported as Sensitive) | 26.05 | Sensitive (Antimicrobial wells with pathogen load detected below the control wells (typically >2 cycle thresholds later) may be reported as Sensitive) | 25.44 | Sensitive (Antimicrobial wells with pathogen load detected below the control wells (typically >2 cycle thresholds later) may be reported as Sensitive) | Sensitive (Antimicrobial wells with pathogen load detected below the control wells (typically >2 cycle thresholds later) may be reported as Sensitive) | 24.816 | Sensitive (Antimicrobial wells with pathogen load detected below the control wells (typically >2 cycle thresholds later) may be reported as Sensitive) | 29.34 | Sensitive (Antimicrobial wells with pathogen load detected below the control wells (typically >2 cycle thresholds later) may be reported as Sensitive) | 30.839 | Sensitive (Antimicrobial wells with pathogen load detected below the control wells (typically >2 cycle thresholds later) may be reported as Sensitive) | 28.974 | Sensitive (Antimicrobial wells with pathogen load detected below the control wells (typically >2 cycle thresholds later) may be reported as Sensitive) | Sensitive (Antimicrobial wells with pathogen load detected below the control wells (typically >2 cycle thresholds later) may be reported as Sensitive) | Ct ([2]; M. morganii, clinical sample of r55-r69, Ct control avg 12.09): 13.986; Ct [2, 25]: 28.975; Molecular Antibiotic Susceptibility Result [2, 26]: Sensitive (Antimicrobial wells with pathogen load detected below the control wells (typically >2 cycle thresholds later) may be reported as Sensitive); Ct [2, 27]: 30.658; Molecular Antibiotic Susceptibility Result [2, 28]: Sensitive (Antimicrobial wells with pathogen load detected below the control wells (typically >2 cycle thresholds later) may be reported as Sensitive); Ct [2, 29]: 30.24; Molecular Antimicrobial Susceptibility Result ([3]; E. coli #1 - WDCM 00090 - 6.2×E3, specimen with <10,000 cells/mL, direct PCR after 16 hours of incubation): Sensitive (Antimicrobial wells with pathogen load detected below the control wells (typically >2 cycle thresholds later) may be reported as Sensitive); Ct at Sensitive Breakpoint ([3]; E. coli #1 - WDCM 00090 - 6.2×E3, specimen with <10,000 cells/mL, direct PCR after 16 hours of incubation, Ct at control 13.787): 26.78; Molecular Antimicrobial Susceptibility Result ([3]; E. coli #2 - WDCM 00090 - 6.2×E3, specimen with <10,000 cells/mL, direct PCR after 16 hours of incubation): Sensitive (Antimicrobial wells with pathogen load detected below the control wells (typically >2 cycle thresholds later) may be reported as Sensitive); Ct at Sensitive Breakpoint ([3]; E. coli #2 - WDCM 00090 - 6.2×E3, specimen with <10,000 cells/mL, direct PCR after 16 hours of incubation, Ct at control 13.46): 27.46; Ct at Sensitive Breakpoint [3, 30]: 23.923; Molecular Antimicrobial Susceptibility Result [3, 31]: Sensitive (Antimicrobial wells with pathogen load detected below the control wells (typically >2 cycle thresholds later) may be reported as Sensitive); Ct of Sensitive Breakpoint [4]: 27.51; Molecular Antimicrobial Susceptibility Result [4]: Sensitive (Antimicrobial wells with pathogen load detected below the control wells (typically >2 cycle thresholds later) may be reported as Sensitive)
2 | C[C@H]1COc2c(N3CCN(C)CC3)c(F)cc3c(=O)c(C(=O)O)cn1c23 [Levofloxacin] | 20.768 | Resistant | 19.100 | Resistant | 29.342 | Resistant | 17.88 | Resistant | 33.85 | Sensitive (Antimicrobial wells with pathogen load detected below the control wells (typically >2 cycle thresholds later) may be reported as Sensitive) | Resistant | 12.289 | Sensitive (Antimicrobial wells with pathogen load detected below the control wells (typically >2 cycle thresholds later) may be reported as Sensitive) | 29.603 | Sensitive (Antimicrobial wells with pathogen load detected below the control wells (typically >2 cycle thresholds later) may be reported as Sensitive) | 33.354 | Sensitive (Antimicrobial wells with pathogen load detected below the control wells (typically >2 cycle thresholds later) may be reported as Sensitive) | 32.085 | Sensitive (Antimicrobial wells with pathogen load detected below the control wells (typically >2 cycle thresholds later) may be reported as Sensitive) | Sensitive (Antimicrobial wells with pathogen load detected below the control wells (typically >2 cycle thresholds later) may be reported as Sensitive) | Molecular Antibiotic Susceptibility Result ([2]; E. faecalis, clinical sample of r93-r99): Sensitive (Antimicrobial wells with pathogen load detected below the control wells (typically >2 cycle thresholds later) may be reported as Sensitive); Ct ([2]; E. faecalis, clinical sample of r93-r99, Ct control avg 22.011): 33.342; Ct ([2]; E. faecalis, clinical sample of r100-r106, Ct control avg 21.027): 34.507; Ct ([2]; E. faecalis, clinical sample of r107-r113, Ct control avg 20.529): 28.107; Molecular Antibiotic Susceptibility Result ([2]; E. faecalis, clinical sample of r114-r120): Sensitive (Antimicrobial wells with pathogen load detected below the control wells (typically >2 cycle thresholds later) may be reported as Sensitive); Ct ([2]; E. faecalis, clinical sample of r114-r120, Ct control avg 20.909): 30.072; Molecular Antibiotic Susceptibility Result ([2]; E. faecalis, clinical sample of r151-r157): Sensitive (Antimicrobial wells with pathogen load detected below the control wells (typically >2 cycle thresholds later) may be reported as Sensitive); Ct ([2]; E. faecalis, clinical sample of r151-r157, Ct control avg 18.551): 35.719; Ct [2, 25]: 29.614; Molecular Antibiotic Susceptibility Result [2, 26]: Sensitive (Antimicrobial wells with pathogen load detected below the control wells (typically >2 cycle thresholds later) may be reported as Sensitive); Ct [2, 27]: 25.775; Molecular Antibiotic Susceptibility Result [2, 28]: Sensitive (Antimicrobial wells with pathogen load detected below the control wells (typically >2 cycle thresholds later) may be reported as Sensitive); Ct [2, 29]: 30.018; Molecular Antibiotic Susceptibility Result ([2]; S. aureus, clinical sample of r85-r92): Resistant; Ct ([2]; S. aureus, clinical sample of r85-r92, Ct control avg 20.309): 16.32; Ct at Sensitive Breakpoint [3, 30]: 12.562; Molecular Antimicrobial Susceptibility Result [3, 31]: Resistant; Ct of Sensitive Breakpoint [4]: 32.72; Molecular Antimicrobial Susceptibility Result [4]: Sensitive (Antimicrobial wells with pathogen load detected below the control wells (typically >2 cycle thresholds later) may be reported as Sensitive)
